Counter-ions that a name gives are not always drawn.
What was measured:
human trypsin = human trypsin (Homo sapiens, UniProt P07477); assay: Measurement of trypsin inhibitory activity; assay type: biochemical; conditions: for Ki: human trypsin, Boc-Phe-Ser-Arg-AMC substrate, Dixon plot
Protocol: Measurement of Trypsin Inhibitory Activity
Using a 96 well plate (#3915, Costar), a test compound (25 μL) was mixed with 20 μM fluorescence enzyme substrate (Boc-Phe-Ser-Arg-AMC, 50 μL) mixed with 200 mM Tris-HCl buffer (pH 8.0), and human trypsin (Sigma, 25 μL) was added. Using a fluorescence plate reader fmax (Molecular Devices, Inc.), the reaction rate was measured from the time-course changes at excitation wavelength 355 nm and fluorescence wavelength 460 nm. The Ki value was calculated from the concentration of the test compound, reciprocal of reaction rate, and Km value of the enzyme substrate, and by using Dixon plot.

[1] = target: recombinant human enteropeptidase (Homo sapiens (Human), UniProt P98073); assay: Measurement of enteropeptidase inhibitory activity; assay type: biochemical; conditions: for Ki: recombinant human enteropeptidase, Gly-Asp-Asp-Asp-Asp-Lys-β-Naphtylamide substrate, Dixon plot
Protocol: Measurement of Enteropeptidase Inhibitory Activity
Using a 96 well plate (#3915, Costar), a test compound (25 μL), 400 mM Tris-HCl buffer (pH 8.0, 25 μL) and 0.5 mg/mL fluorescence enzyme substrate (Gly-Asp-Asp-Asp-Asp-Lys-β-Naphtylamide, 25 μL) were mixed, and recombinant human enteropeptidase (R&D Systems, Inc., 25 μL) was added. Using a fluorescence plate reader fmax (Molecular Devices, Inc.), the reaction rate was measured from the time-course changes at excitation wavelength 320 nm and fluorescence wavelength 405 nm. The Ki value was calculated from the concentration of the test compound, reciprocal of reaction rate, and Km value of the enzyme substrate, and by using Dixon plot.

KK-A^y/JCL mice = assay: Evaluation of antidiabetic action (Experimental Example 4); assay type: in vivo; conditions: mixed in feed for one week, versus control group
From the text: Evaluation of Antidiabetic Action KK-A^y/JCL mice (male, 5- to 7-week-old, CLEA Japan, Inc.) known to spontaneously develop obese type 2 diabetes were purchased and, after one week of preliminary rearing period, grouped (6 per group) with the body weight and non-fasting blood glucose levels as indices. The animals were individually housed in a polycarbonate cage and allowed to drink water freely from a watering bottle. […] CRF-1 alone was given to the control group. After one week of dosing period, the blood (6 μL) was drawn from the tail vein of the animals, and the blood glucose level was measured by ACCU-CHEK Aviva (Roche Diagnostics K.K.). A significant difference from the control group was detected by Dunnett's multiple comparison test or Student's t-test (significance level less than 5%).

Chain of recombinant human enteropeptidase (P98073 whole entry): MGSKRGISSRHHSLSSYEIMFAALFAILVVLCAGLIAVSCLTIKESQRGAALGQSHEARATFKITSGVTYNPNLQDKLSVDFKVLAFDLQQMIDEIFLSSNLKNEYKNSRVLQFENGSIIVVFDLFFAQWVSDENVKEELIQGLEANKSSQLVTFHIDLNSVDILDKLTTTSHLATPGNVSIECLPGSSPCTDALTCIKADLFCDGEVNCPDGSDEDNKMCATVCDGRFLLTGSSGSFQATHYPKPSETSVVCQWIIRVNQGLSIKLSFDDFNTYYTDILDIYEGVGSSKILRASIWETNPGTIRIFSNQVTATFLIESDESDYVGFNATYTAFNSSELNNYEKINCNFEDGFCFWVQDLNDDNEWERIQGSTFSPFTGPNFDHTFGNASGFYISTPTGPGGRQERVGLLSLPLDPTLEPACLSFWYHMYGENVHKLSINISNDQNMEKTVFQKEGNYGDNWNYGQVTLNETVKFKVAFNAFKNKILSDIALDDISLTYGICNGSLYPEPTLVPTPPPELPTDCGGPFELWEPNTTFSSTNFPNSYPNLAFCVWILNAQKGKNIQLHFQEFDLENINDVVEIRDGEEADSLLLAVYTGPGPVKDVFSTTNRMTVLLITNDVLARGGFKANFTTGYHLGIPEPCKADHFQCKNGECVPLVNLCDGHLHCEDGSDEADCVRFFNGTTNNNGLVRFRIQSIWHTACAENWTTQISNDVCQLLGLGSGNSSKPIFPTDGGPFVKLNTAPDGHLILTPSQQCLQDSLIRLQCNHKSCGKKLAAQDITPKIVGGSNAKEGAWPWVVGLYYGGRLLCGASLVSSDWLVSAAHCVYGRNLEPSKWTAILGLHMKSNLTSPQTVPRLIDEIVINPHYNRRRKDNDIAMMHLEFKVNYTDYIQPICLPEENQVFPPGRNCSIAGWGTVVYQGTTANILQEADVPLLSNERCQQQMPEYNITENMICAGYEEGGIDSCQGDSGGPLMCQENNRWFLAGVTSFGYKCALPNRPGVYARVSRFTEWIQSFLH

Compound | Ki (human trypsin) | Ki [1] | trypsin inhibitory activity (in words) (human trypsin; summary statement) | enteropeptidase inhibitory activity (in words) ([1]; summary statement) | hypoglycemic action (KK-A^y/JCL mice)
N=C(N)c1ccc(OC(=O)c2ccc(CN3CCC[C@@H]3C(=O)N[C@@H](CS(=O)(=O)O)C(=O)O)o2)cc1 [A-5] | 0.24 nM | 0.82 nM | – | – | –
N=C(N)c1ccc2cc(OC(=O)c3ccc(CN4CCC[C@@H]4C(=O)N[C@@H](CS(=O)(=O)O)C(=O)O)o3)ccc2c1 [A-6] | 0.08 nM | 0.67 nM | – | – | –
N=C(N)c1ccc(OC(=O)c2ccc(CN3CCC[C@H]3C(=O)N[C@@H](CS(=O)(=O)O)C(=O)O)o2)cc1 [A-10] | 0.97 nM | 0.65 nM | – | – | –
CC(C)[C@@H](C(=O)N[C@@H](CC(=O)O)C(=O)O)N(C)Cc1ccc(C(=O)Oc2ccc(C(=N)N)cc2)o1 [A-14, N—(N-{[5-(4-amidinophenoxycarbonyl)furan-2-yl]methyl}-N-methyl-L-valyl)-L-aspartic acid bis(trifluoroacetate)] | 0.45 nM | 0.56 nM | – | – | –
CN(Cc1ccc(C(=O)Oc2ccc(C(=N)N)cc2)o1)C(=O)N[C@@H](CC(=O)O)C(=O)O [A-20] | 0.54 nM | 0.94 nM | – | – | –
N=C(N)c1ccc(OC(=O)c2ccc(CN3CCC[C@@H]3C(=O)N[C@H](CC(=O)O)C(=O)O)s2)c(F)c1 [B-15] | 0.52 nM | 0.69 nM | – | – | –
C=CCN(CC(=O)O)C(=O)[C@@H]1CSCN1Cc1ccc(C(=O)Oc2ccc(C(=N)N)cc2F)s1 [B-21] | 0.38 nM | 1 nM | – | – | –
CC(C)[C@H](C(=O)N[C@@H](CC(=O)O)C(=O)O)N(C)Cc1ccc(C(=O)Oc2ccc(C(=N)N)cc2F)s1 [B-27, N—(N-{[5-(4-amidino-2-fluorophenoxycarbonyl)thiophen-2-yl]methyl}-N-methyl-D-valyl)-L-aspartic acid bis(trifluoroacetate)] | 0.68 nM | 0.78 nM | – | – | –
CC(C)C[C@@H](C(=O)N[C@@H](CC(=O)O)C(=O)O)N(C)Cc1ccc(C(=O)Oc2ccc(C(=N)N)cc2F)s1 [B-35] | 0.81 nM | 0.53 nM | – | – | –
N=C(N)c1ccc(OC(=O)c2ccc(Cn3cccc3C(=O)O)s2)c(F)c1 [B-42, N-{[5-(4-amidino-2-fluorophenoxycarbonyl)thiophen-2-yl]methyl}-1H-pyrrole-2-carboxylic acid trifluoroacetate] | 0.82 nM | 0.61 nM | – | – | –
N=C(N)c1ccc(OC(=O)c2cc3c(s2)CN(CC(=O)O)CC3)c(F)c1 [B-43, {2-[(4-amidino-2-fluorophenoxy)carbonyl]-4,5-dihydrothieno[2,3-c]pyridin-6(7H)-yl}acetic acid bis(trifluoroacetate)] | 0.56 nM | 0.69 nM | – | – | –
C=CCN(C(=O)CN1CCc2cc(C(=O)Oc3ccc(C(=N)N)cc3F)sc2C1)[C@@H](CCC(=O)O)C(=O)O [B-45, N-allyl-N-({2-[(4-amidino-2-fluorophenoxy)carbonyl]-4,5-dihydrothieno[2,3-c]pyridin-6(7H)-yl}acetyl)-L-glutamic acid bis(trifluoroacetate)] | 0.71 nM | 0.62 nM | – | – | –
CN(Cc1ccc(C(=O)Oc2ccc(C(=N)N)cc2F)s1)C(=O)N[C@@H](CC(=O)O)C(=O)O [B-46] | 0.87 nM | 0.38 nM | – | – | –
CC(C)N(Cc1ccc(C(=O)Oc2ccc(C(=N)N)cc2F)s1)C(=O)N[C@@H](CC(=O)O)C(=O)O [B-47] | 0.69 nM | 0.33 nM | – | – | –
N=C(N)c1ccc(OC(=O)c2cc3c(s2)CN(C(=O)N[C@@H](CC(=O)O)C(=O)O)CC3)c(F)c1 [B-55, N-{[2-(4-amidino-2-fluorophenoxycarbonyl)-4,5,6,7-tetrahydrothieno[2,3-c]pyridin-6-yl]carbonyl}-L-aspartic acid trifluoroacetate] | 0.24 nM | 0.2 nM | – | – | –
CN(Cc1ccc(C(=O)Oc2ccc(C(=N)N)cc2F)s1)[C@H](Cc1ccccc1)C(=O)N[C@H](CC(=O)O)C(=O)O [B-59, N—(N-{5-[(4-amidino-2-fluorophenoxy)carbonyl]thiophen-2-yl}methyl-N-methyl-D-phenylalanyl)-D-aspartic acid bis(trifluoroacetate)] | 3.31 nM | 0.98 nM | – | – | –

More lines, in order of falling Ki [1], values ahead:

Ki (human trypsin) | Ki [1] | trypsin inhibitory activity (in words) (human trypsin; summary statement) | enteropeptidase inhibitory activity (in words) ([1]; summary statement) | Compound | hypoglycemic action (KK-A^y/JCL mice)
– | 1.36 nM | superior | superior | N=C(N)c1ccc(OC(=O)c2ccc(CCC(=O)N[C@@H](CC(=O)O)C(=O)O)s2)c(F)c1.O=C(O)C(F)(F)F [reference compound A, N-{3-[5-(4-amidino-2-fluorophenoxycarbonyl)thiophen-2-yl]propanoyl}-L-aspartic acid trifluoroacetate, reference compound] | significant hypoglycemic action
1.57 nM | 1.27 nM | – | – | N=C(N)c1ccc(OC(=O)c2ccc(CNC3(C(=O)N[C@@H](CC(=O)O)C(=O)O)CC3)s2)c(F)c1 [B-37, N-(1-{[5-(4-amidino-2-fluorophenoxycarbonyl)thiophen-2-yl]methylamino}cyclopropanecarbonyl)-L-aspartic acid bis(trifluoroacetate)] | –
0.38 nM | 1 nM | – | – | CC(C)[C@@H](C(=O)N[C@@H](CCC(=O)O)C(=O)O)N(C)Cc1ccc(C(=O)Oc2ccc(C(=N)N)cc2F)s1 [B-26] | –
1.14 nM | 0.95 nM | – | – | N=C(N)c1ccc(OC(=O)c2ccc(CN3CCC[C@@H]3C(=O)N[C@@H](CS(=O)(=O)O)C(=O)O)s2)cc1 [B-12] | –
0.7 nM | 0.9 nM | – | – | CC(C)C[C@@H](C(=O)N[C@@H](CCC(=O)O)C(=O)O)N(C)Cc1ccc(C(=O)Oc2ccc(C(=N)N)cc2F)s1 [B-32] | –
0.64 nM | 0.78 nM | – | – | C=CCN(CC(=O)O)C(=O)[C@@H]1CCCN1Cc1ccc(C(=O)Oc2ccc(C(=N)N)cc2F)s1 [B-11] | –
0.43 nM | 0.77 nM | – | – | C=CCN(CC(=O)N[C@@H](CC(=O)O)C(=O)O)C(=O)CCc1ccc(C(=O)Oc2ccc(C(=N)N)cc2F)s1 [B-56, N—[N-allyl-N-(3-{5-[(4-amidino-2-fluorophenoxy)carbonyl]thiophen-2-yl}propanoyl)glycyl]-L-aspartic acid trifluoroacetate] | –
0.44 nM | 0.75 nM | – | – | CC(C)[C@@H](C(=O)N[C@@H](CC(=O)O)C(=O)O)N(C)Cc1ccc(C(=O)Oc2ccc(C(=N)N)cc2F)s1 [B-23] | –
0.89 nM | 0.61 nM | – | – | CC(C)C[C@@H](C(=O)N[C@H](CCC(=O)O)C(=O)O)N(C)Cc1ccc(C(=O)Oc2ccc(C(=N)N)cc2F)s1 [B-36] | –
0.42 nM | 0.53 nM | – | – | N=C(N)c1ccc(OC(=O)c2ccc(CN3CCC[C@@H]3C(=O)N(CCC(=O)O)CC(=O)O)s2)c(F)c1 [B-60, N-{5-[(4-amidino-2-fluorophenoxy)carbonyl]thiophen-2-yl}methyl-D-proline N-(2-carboxyethyl)-N-carboxymethylamide bis(trifluoroacetate)] | –
0.92 nM | 0.44 nM | – | – | N=C(N)c1ccc(OC(=O)c2ccc(CN3CCCC[C@H]3C(=O)N[C@@H](CC(=O)O)C(=O)O)s2)c(F)c1 [B-18] | –
0.29 nM | 0.43 nM | – | – | N=C(N)c1ccc(OC(=O)c2ccc(CN3CCC[C@@H]3C(=O)N[C@@H](CC(=O)O)C(=O)O)s2)c(F)c1 [B-13] | –
0.84 nM | 0.38 nM | – | – | CC(C)N(Cc1ccc(C(=O)Oc2ccc(C(=N)N)cc2)o1)C(=O)N[C@@H](CC(=O)O)C(=O)O [A-21] | –
0.25 nM | 0.24 nM | – | – | N=C(N)c1ccc(OC(=O)c2ccc(CN3CCC[C@H]3C(=O)N[C@@H](CS(=O)(=O)O)C(=O)O)s2)c(F)c1 [B-10] | –
0.19 nM | 0.24 nM | – | – | N=C(N)c1ccc(OC(=O)c2ccc(CN3CCC[C@@H]3C(=O)N[C@@H](CS(=O)(=O)O)C(=O)O)s2)c(F)c1 [B-14] | –
0.21 nM | 0.15 nM | – | – | N=C(N)c1ccc(OC(=O)c2ccc(CN3CSC[C@H]3C(=O)N[C@@H](CC(=O)O)C(=O)O)s2)c(F)c1 [B-20] | –

— patent US9346821B2, “Heterocyclic carboxylic acid ester derivative” (AJINOMOTO CO., INC., priority 2011, dated 2016)
